Legend:
HaCaT cells = experiment: NAD assay in HaCaT cells, total NAD level normalized to protein; assay type: cell-based; conditions: 4 hours incubation, concentration not given
Method: The biological activity of certain compounds disclosed herein was determined using the following method: • 1. Plate HaCaT cells in 12-well tissue culture plates at a density of 200,000 cells per well in 0.75 mL DMEM growth medium. Incubate overnight at 37° C. in a incubator at 5% CO2. • 2. Next day, prepare dilutions of each compound in growth medium at the desired final concentration. • 3. Incubate cells as above for 4 hours. • 4. After the incubation, wash cell monolayers in each well with 200 uL PBS and add 200 uL 0.25% Trypsin. Let cells lift for 15 minutes. • 5. Once cells are lifted, collect cells into sterile 1.5 mL Eppendorf tube containing 400 uL of DMEM w/2% HI FBS. • 6. Centrifuge tubes for 500×g for 5 min. • 7. Aspirate supernatant and wash cells with 200 uL of cold PBS. • 8. Centrifuge tubes for 500×g for 5 min. • 9. Aspirate supernatant and add 400 μL of cold extraction buffer (provided in the NAD assay kit) and vortex each tube for 10 seconds. • 10. Centrifuge samples at 13,000×g for 10 min to remove insoluble material. • 11. Use a small aliquot of extract to determine total protein concentration by BCA protein assay kit. • 12. Deproteinize samples by filtering them through a 10 kDa cut-off spin filter. Centrifuge at 13,000×g for 10 min. • 13. After cell lysate is filtered, load 25 uL of samples to 96 well plate for NAD assay. • 14. Add 25 uL of extraction buffer to each well with samples to dilute them 1:2. Add 50 uL of standards to appropriate wells. • 15. Set up master reaction mix of cycling buffer and NAD cycling enzyme mix. Add 100 uL of mix to each well and incubate for […]. • 16. Add 10 uL of developer into each well. • 17. Let plate incubate at room temperature for 1 hr. • 18. Stop the reaction by adding 10 uL of stop solution into each well and mix well. • 19. Measure absorbance at 450 nm using plate reader. • 20. Plot standard curve and normalize data to determine total NAD level.

NHDF cells = experiment: General NAD Assay Procedure: total NAD level in NHDF cells (NAD/NADH Quantification Kit); assay type: cell-based; conditions: for increase in NAD levels compared with NMN: 6-hour time point, all concentrations
Method: NHDF cells (Lonza Cat #CC-2511) were plated in 12-well tissue culture plates at a density of 200,000 cells per well in 0.75 mL growth medium (Lonza FGM-2 cat #CC-3132 containing growth factors; cat #CC-4126). The plates were then incubated overnight at 37° C. in a humidified atmosphere of 5% CO2. The next day, dilutions of each test article were prepared in growth medium at 4× the desired final concentration. 250 μL of each dilution was added to respective wells to obtain desired concentration in each well. The cells were incubated for the desired length of time.
After the incubation, the cell monolayers in each well were washed with cold PBS. 400 μL of extraction buffer (provided in the NAD assay kit) was added and triturated 5-6 time. The cell lysate was collected in Eppendorf tubes and then flash frozen in a dry ice-methanol bath for 20 min then thawed at room temperature. The freeze-thaw cycle was repeated one additional time. The cell lysates were centrifuged and the supernatant collected stored at −80° C. until use.
An aliquot of extract was used to determine total protein concentration using Pierce BCA kit (Thermo Fisher Cat #23225). The total volumes of each sample were adjusted so that the total protein concentration was same in all samples.
50 μL of standards and each sample were added to appropriate wells of a 96-well plate, and the NAD assay according to the kit manufacturer's instructions (NAD/NADH Quantification Kit; Sigma-Aldrich; Catalog Number MAK037). The absorbance at 450 nm was measured using an Envision plate reader (Perkin Elmer) with default settings. The data was normalized against a blank. A standard curve was plotted and used to determine the total NAD level in each test sample.

| SMILES | NAD+ level (HaCaT cells) [pmol/mg protein] | Average Total NAD (pmoles) Concentration from NAD Assay (NHDF cells; 3-Hour, Conc. 5 μM) [pmol] | Average Total NAD (pmoles) Concentration from NAD Assay (NHDF cells; 3-Hour, Conc. 10 μM) [pmol] | Average Total NAD (pmoles) Concentration from NAD Assay (NHDF cells; 3-Hour, Conc. 20 μM) [pmol] | Average Total NAD (pmoles) Concentration from NAD Assay (NHDF cells; 6-Hour, Conc. 5 μM) [pmol] | Average Total NAD (pmoles) Concentration from NAD Assay (NHDF cells; 6-Hour, Conc. 10 μM) [pmol] | Average Total NAD (pmoles) Concentration from NAD Assay (NHDF cells; 6-Hour, Conc. 20 μM) [pmol] | increase in NAD levels compared with NMN (NHDF cells) |
| --- | --- | --- | --- | --- | --- | --- | --- | --- |
| O=C(Nc1ccccc1C[P+](c1ccccc1)(c1ccccc1)c1ccccc1)c1cccnc1 | 666 | – | – | – | – | – | – | – |
| CC(=O)OC[C@H]1O[C@@H]([n+]2cccc(C(=O)NCc3ccccc3)c2)[C@H](OC(C)=O)[C@@H]1OC(C)=O | 399 | – | – | – | – | – | – | – |
| CC(=O)OCC1OC([n+]2cccc(C(=O)Oc3c(C)c(C)c4c(c3C)CC[C@@](C)(CCC[C@H](C)CCC[C@H](C)CCCC(C)C)O4)c2)C(OC(C)=O)C1OC(C)=O (stereo partly drawn) | 301 | – | – | – | – | – | – | – |
| O=C(Cc1ccccc1Nc1c(Cl)cccc1Cl)OCCOC(=O)c1cccnc1 | <1 | – | – | – | – | – | – | – |
| CC1=C(/C=C/C(C)=C/C=C/C(C)=C/C(=O)OCCOC(=O)c2cccnc2)C(C)(C)CCC1 | 788 | – | – | – | – | – | – | – |
| NC(=O)c1ccc[n+]([C@@H]2O[C@H](COP(=O)([O-])O)[C@@H](O)[C@H]2O)c1 [NMN, nicotinamide mononucleotide, reference compound] | – | 48.5 | 63.5 | 63.1 | 50.9 | 54.9 | 58.6 | – |
| O=C(O)c1ccc[n+]([C@@H]2O[C@H](COP(=O)(O)O)[C@@H](O)[C@H]2O)c1 [Sample 1, Nicotinic acid mononucleotide] | – | 38.1 | 55.0 | 59.0 | 72.6 | 77.8 | 79.4 | – |
| O=C(NCCCCCC[P+](c1ccccc1)(c1ccccc1)c1ccccc1)c1ccc[n+]([C@@H]2O[C@H](COP(=O)(O)O)[C@@H](O)[C@H]2O)c1 [Sample 2, 1-((2R,3R,4S,5R)-3,4-dihydroxy-5-((phosphonooxy)methyl)tetrahydrofuran-2-yl)-3-((6-(triphenylphosphonio)hexyl)carbamoyl)pyridin-1-ium] | – | 35.5 | 45.5 | 59.3 | 82.2 | 82.0 | 74.5 | greater increase in NAD levels than NMN |
| O=C(NCCCCCC[P+](c1ccccc1)(c1ccccc1)c1ccccc1)c1cccnc1 [Sample 5] | – | 41.6 | 57.5 | 60.0 | 68.2 | 77.0 | 76.0 | greater increase in NAD levels than NMN |
| O=C(NCCCCCC[P+](c1ccccc1)(c1ccccc1)c1ccccc1)c1cccnc1 [drawing 171] | 217 | – | – | – | – | – | – | – |
| O=C(NCCCCCC[P+](c1ccccc1)(c1ccccc1)c1ccccc1)c1ccc[n+]([C@@H]2O[C@H](COP(=O)(O)O)[C@@H](O)[C@H]2O)c1 [drawing 172] | 449 | – | – | – | – | – | – | – |

Source: US20230242558A1, “NICOTINATE AND NICOTINAMIDE RIBOSIDE-BASED COMPOUNDS AND DERIVATIVES THEREOF” (New Frontier Bio, Inc., priority 2022, published 2023)
